Laboratory results from patent US9605003B2, “Heterocyclic compounds and uses thereof” (Infinity Pharmaceuticals, Inc., priority 2011, dated 2017).

Assays:
Balb/c splenic B cells = assay: B cell activation and proliferation assay (Alamar Blue); format: cell-based; details: Mus musculus, Less than 100 nanoMolar
Method: The ability of one or more subject compounds to inhibit B cell activitation and proliferation is determined according to standard procedures known in the art. For example, an in vitro cellular proliferation assay is established that measures the metabolic activity of live cells. The assay is performed in a 96 well microtiter plate using Alamar Blue reduction. Balb/c splenic B cells are purified over a Ficoll-Paque™ PLUS gradient followed by magnetic cell separation using a MACS B cell Isolation Kit (Miletenyi). Cells are plated in 90 μl at 50,000 cells/well in B Cell Media (RPMI+10% FBS+Penn/Strep+50 μM bME+5 mM HEPES). A compound provided herein is diluted in B Cell Media and added in a 10 μl volume. Plates are incubated for 30 min at 37° C. and 5% CO2 (0.2% DMSO final concentration). A 50 μl B cell stimulation cocktail is then added containing either 10 μg/ml LPS or 5 μg/ml F(ab′)2 Donkey anti-mouse IgM plus 2 ng/ml recombinant mouse IL4 in B Cell Media. Plates are incubated for 72 hours at 37° C. and 5% CO2. A volume of 15 μL of Alamar Blue reagent is added to each well and plates are incubated for 5 hours at 37° C. and 5% CO2. Alamar Blue fluoresce is read at 560Ex/590Em, and IC50 or EC50 values are calculated using GraphPad Prism 5.

PI3Kβ = molecular target: T1, PI3Kβ (Homo sapiens, UniProt P42338); assay: PI3 Kinase HTRF assay, PI3Kβ; format: biochemical; details: Between 1 μM and 10 μM; read-out: PI3K β IC50
T1 construct: purchased Millipore Corporation 14-603-K
T1 sequence (P42338 whole entry): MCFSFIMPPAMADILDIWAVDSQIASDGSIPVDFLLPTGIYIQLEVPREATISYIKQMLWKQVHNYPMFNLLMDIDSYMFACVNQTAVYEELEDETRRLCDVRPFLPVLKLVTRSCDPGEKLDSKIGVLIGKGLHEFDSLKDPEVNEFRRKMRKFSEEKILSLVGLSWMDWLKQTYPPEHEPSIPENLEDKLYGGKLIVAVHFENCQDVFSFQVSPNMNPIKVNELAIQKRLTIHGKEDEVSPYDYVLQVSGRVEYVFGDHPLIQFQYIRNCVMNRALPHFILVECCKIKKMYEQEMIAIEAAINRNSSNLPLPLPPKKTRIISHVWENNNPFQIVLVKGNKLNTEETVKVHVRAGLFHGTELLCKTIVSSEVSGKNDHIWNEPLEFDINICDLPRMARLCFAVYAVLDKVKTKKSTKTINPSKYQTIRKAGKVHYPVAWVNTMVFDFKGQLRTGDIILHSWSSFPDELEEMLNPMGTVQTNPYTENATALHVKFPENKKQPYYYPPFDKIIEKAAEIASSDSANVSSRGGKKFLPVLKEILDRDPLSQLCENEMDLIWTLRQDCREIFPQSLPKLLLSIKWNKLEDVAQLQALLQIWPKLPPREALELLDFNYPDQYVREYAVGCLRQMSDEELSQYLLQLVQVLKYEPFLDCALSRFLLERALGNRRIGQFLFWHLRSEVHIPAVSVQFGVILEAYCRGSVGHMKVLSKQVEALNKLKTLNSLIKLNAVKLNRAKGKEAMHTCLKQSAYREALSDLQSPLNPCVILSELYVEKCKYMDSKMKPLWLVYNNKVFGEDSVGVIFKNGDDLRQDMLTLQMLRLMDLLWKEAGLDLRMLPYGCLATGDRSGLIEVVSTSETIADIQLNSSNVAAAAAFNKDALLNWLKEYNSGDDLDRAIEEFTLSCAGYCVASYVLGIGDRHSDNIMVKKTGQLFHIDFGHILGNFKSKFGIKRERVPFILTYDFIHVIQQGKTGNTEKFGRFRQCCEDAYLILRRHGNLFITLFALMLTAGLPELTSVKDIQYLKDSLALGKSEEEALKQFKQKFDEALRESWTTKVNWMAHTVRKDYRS
T1 sequence (P27986 2-724 partner limits assumed): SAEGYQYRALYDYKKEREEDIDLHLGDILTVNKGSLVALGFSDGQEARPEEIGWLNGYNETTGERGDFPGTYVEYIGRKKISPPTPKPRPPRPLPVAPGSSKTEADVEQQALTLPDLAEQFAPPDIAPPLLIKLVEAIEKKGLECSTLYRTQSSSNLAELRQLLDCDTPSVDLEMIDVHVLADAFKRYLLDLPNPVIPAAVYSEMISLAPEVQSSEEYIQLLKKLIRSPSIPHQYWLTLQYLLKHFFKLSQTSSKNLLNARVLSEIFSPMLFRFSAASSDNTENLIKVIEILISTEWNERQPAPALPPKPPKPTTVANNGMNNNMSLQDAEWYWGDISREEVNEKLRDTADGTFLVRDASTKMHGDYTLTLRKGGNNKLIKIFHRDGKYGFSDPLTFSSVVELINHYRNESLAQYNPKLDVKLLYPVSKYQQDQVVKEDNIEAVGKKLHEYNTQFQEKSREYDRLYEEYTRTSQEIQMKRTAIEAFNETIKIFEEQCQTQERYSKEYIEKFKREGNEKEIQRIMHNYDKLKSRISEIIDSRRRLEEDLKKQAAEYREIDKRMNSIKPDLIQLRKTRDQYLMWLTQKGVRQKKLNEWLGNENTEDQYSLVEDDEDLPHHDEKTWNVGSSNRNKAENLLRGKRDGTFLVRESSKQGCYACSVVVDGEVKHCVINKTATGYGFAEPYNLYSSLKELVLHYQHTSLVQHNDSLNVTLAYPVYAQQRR
Excerpt: (§1) A PI3-Kinase HTRF® assay kit (cat No. 33-016) purchased from Millipore Corporation was used to screen compounds provided herein. This assay used specific, high affinity binding of the GRP1 pleckstrin homology (PH) domain to PIP3, the product of a Class 1A or 1B PI3 Kinase acting on its physiological substrate PIP2. During the detection phase of the assay, a complex was generated between the GST-tagged PH domain and biotinylated short chain PIP3. The biotinylated PIP3 and the GST-tagged PH domain recruited fluorophores (Streptavidin-Allophycocyanin and Europium-labeled anti-GST respectively) to form the fluorescence resonance energy transfer (FRET) architecture, generating a stable time-resolved FRET signal. The FRET complex was disrupted in a competitive manner by non-biotinylated PIP3, a product formed in the PI3 Kinase assay.
(§2) PI3 Kinase α, β, γ and δ activity was assayed using the PI3 Kinase HTRF® assay kit (catalogue No. 33-016) purchased from Millipore Corporation. Purified recombinant PI3Kα (catalogue No. 14-602-K), PI3Kβ (catalogue No. 14-603-K), PI3Kγ (catalogue No. 14-558-K) and PI3Kδ (catalogue No. 14-604-K) were obtained from Millipore Corporation. Purified recombinant PI3K enzyme was used to catalyze the phosphorylation of phosphatidylinositol 4,5-bisphosphate (PIP2 at 10 μM) to phosphatidylinositol 3,4,5-trisphosphate (PIP3) in the presence of 10 μM ATP. The assay was carried out in 384-well format and detected using a Perkin Elmer EnVision Xcite Multilabel Reader. Emission ratios were converted into percent inhibitions and imported into GraphPad Prism software. The concentration necessary to achieve inhibition of enzyme activity by 50% (IC50) was calculated using concentrations ranging from 20 μM to 0.1 nM (12-point curve). IC50 values were determined using a nonlinear regression model available in GraphPad Prism 5.

PI3Kα = molecular target: T2, PI3Kα (Homo sapiens, UniProt P42336); assay: PI3 Kinase HTRF assay, PI3Kα; format: biochemical; details: Between 1 μM and 10 μM; read-out: PI3K α IC50
T2 construct: purchased Millipore Corporation 14-602-K
T2 sequence (P42336 whole entry): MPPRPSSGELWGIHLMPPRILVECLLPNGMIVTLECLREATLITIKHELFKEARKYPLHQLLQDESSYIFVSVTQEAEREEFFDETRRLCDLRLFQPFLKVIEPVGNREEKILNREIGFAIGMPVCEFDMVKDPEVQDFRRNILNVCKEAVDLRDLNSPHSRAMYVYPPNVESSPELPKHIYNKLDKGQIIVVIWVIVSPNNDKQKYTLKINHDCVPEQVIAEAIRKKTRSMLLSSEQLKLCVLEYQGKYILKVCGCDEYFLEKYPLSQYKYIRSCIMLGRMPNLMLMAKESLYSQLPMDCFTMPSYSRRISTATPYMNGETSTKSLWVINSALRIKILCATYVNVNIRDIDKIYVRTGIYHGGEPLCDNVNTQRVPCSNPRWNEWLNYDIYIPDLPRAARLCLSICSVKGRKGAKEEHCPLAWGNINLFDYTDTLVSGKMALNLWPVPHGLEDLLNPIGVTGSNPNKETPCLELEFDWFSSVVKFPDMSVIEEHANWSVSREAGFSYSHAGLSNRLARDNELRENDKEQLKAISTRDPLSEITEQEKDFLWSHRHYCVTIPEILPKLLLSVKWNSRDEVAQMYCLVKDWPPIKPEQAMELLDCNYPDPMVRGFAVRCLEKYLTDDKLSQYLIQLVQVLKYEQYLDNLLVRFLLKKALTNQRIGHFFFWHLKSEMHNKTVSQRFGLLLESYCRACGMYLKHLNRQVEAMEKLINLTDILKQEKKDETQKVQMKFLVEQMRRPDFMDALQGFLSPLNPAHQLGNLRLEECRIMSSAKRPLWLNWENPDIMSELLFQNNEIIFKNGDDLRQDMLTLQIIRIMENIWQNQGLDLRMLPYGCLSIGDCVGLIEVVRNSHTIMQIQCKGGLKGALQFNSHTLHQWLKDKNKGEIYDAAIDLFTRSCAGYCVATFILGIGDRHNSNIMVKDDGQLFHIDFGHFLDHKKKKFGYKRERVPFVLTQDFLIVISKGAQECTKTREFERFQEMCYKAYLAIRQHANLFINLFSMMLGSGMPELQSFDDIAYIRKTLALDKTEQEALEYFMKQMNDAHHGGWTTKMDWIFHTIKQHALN
T2 sequence (P27986 whole entry partner): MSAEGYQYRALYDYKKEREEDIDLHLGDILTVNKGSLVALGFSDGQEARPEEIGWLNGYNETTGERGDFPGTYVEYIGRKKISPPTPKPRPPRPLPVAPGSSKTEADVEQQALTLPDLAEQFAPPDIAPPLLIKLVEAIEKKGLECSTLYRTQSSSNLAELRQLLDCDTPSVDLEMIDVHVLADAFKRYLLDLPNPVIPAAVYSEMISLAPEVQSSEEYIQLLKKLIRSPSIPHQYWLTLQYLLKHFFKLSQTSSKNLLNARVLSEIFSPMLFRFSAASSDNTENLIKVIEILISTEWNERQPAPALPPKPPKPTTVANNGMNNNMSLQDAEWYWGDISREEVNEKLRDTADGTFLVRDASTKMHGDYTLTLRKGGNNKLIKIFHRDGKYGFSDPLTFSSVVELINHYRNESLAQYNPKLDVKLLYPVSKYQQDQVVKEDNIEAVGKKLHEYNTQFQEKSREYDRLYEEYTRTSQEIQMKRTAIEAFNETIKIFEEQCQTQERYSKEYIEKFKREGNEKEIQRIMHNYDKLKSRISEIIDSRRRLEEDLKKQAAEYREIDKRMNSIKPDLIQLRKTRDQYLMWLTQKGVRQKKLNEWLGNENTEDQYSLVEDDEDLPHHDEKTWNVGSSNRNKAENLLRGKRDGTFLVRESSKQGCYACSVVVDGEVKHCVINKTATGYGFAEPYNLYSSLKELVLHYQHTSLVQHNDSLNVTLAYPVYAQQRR
Excerpt: as §1, §2

| SMILES | EC50 (Balb/c splenic B cells) | IC50 (PI3Kβ) | IC50 (PI3Kα) |
| --- | --- | --- | --- |
| C[C@H](Nc1ncnc2scnc12)c1cc2cccc(-c3ccc(=O)n(C)c3)c2c(=O)n1-c1ccccc1 [Compound 51] | < 100 nM | 1000 to 10000 nM |  |
| CCCn1cc(-c2cccc3cc([C@H](C)Nc4ncnc5scnc45)n(-c4ccccc4)c(=O)c23)cn1 [Compound 29] |  | 1000 to 10000 nM | 1000 to 10000 nM |
| C[C@H](Nc1ncnc2scnc12)c1cc2cccc(-c3cnc4ccoc4c3)c2c(=O)n1-c1ccccc1 [Compound 55] | < 100 nM | 1000 to 10000 nM |  |
| COc1ccccc1-c1cccc2cc([C@H](C)Nc3ncnc4scnc34)n(-c3ccccc3)c(=O)c12 [Compound 35] |  | 1000 to 10000 nM | 1000 to 10000 nM |
| C[C@H](Nc1ncnc2scnc12)c1cc2cccc(-c3cnc4c(c3)CCCO4)c2c(=O)n1-c1ccccc1 [Compound 54] | < 100 nM | 1000 to 10000 nM |  |
| COc1ncc(-c2cccc3cc([C@H](C)Nc4ncnc5scnc45)n(-c4cccc(F)c4)c(=O)c23)cn1 [Compound 60] | < 100 nM |  | 1000 to 10000 nM |
| C[C@H](Nc1ncnc2scnc12)c1cc2cccc(-c3cccc(N(C)C)c3)c2c(=O)n1-c1ccccc1 [Compound 45] | < 100 nM | 1000 to 10000 nM |  |
| C[C@H](Nc1ncnc2scnc12)c1cc2cccc(-c3ccc(F)c(F)c3)c2c(=O)n1-c1ccccc1 [Compound 22] | < 100 nM |  | 1000 to 10000 nM |
| C[C@H](Nc1ncnc2scnc12)c1cc2scc(-c3cnn(C)c3)c2c(=O)n1-c1ccccc1 [Compound 16] |  |  | 1000 to 10000 nM |
| C[C@H](Nc1ncnc2scnc12)c1cc2cccc(-c3ccnc(C(F)(F)F)c3)c2c(=O)n1-c1ccccc1 [Compound 17] |  | 1000 to 10000 nM | 1000 to 10000 nM |
| C[C@H](Nc1ncnc2scnc12)c1cc2cccc(-c3cnn(C)c3)c2c(=O)n1C1CC1 [Compound 9] | < 100 nM |  |  |
| C[C@H](Nc1ncnc2scnc12)c1cc2cccc(-c3ccncc3)c2c(=O)n1-c1ccccc1 [Compound 33] |  | 1000 to 10000 nM |  |
| COc1ncc(-c2cccc3cc([C@H](C)Nc4ccnc5scnc45)n(-c4ccccc4)c(=O)c23)cn1 [Compound 89] | < 100 nM |  | 1000 to 10000 nM |
| CC(C)n1cc(-c2cccc3cc([C@H](C)Nc4ncnc5scnc45)n(-c4ccccc4)c(=O)c23)cn1 [Compound 23] |  |  | 1000 to 10000 nM |
| Cc1ncc(-c2cccc3cc([C@H](C)Nc4ncnc5scnc45)n(-c4ccccc4)c(=O)c23)cn1 [Compound 37] |  |  | 1000 to 10000 nM |
| C[C@H](Nc1ncnc2scnc12)c1cc2cccc(C=O)c2c(=O)n1-c1ccccc1 [Compound 83] | < 100 nM |  | 1000 to 10000 nM |
| C[C@H](Nc1ncnc2scnc12)c1cc2cccc(-c3ccc(C(F)(F)F)nc3)c2c(=O)n1-c1ccccc1 [Compound 13] | < 100 nM |  |  |
| C[C@H](Nc1ncnc2scnc12)c1cc2cccc(-c3ccc(N)nc3)c2c(=O)n1-c1ccccc1 [Compound 46] | < 100 nM | 1000 to 10000 nM |  |
| COc1cccc(-c2cccc3cc([C@H](C)Nc4ncnc5scnc45)n(-c4ccccc4)c(=O)c23)c1 [Compound 31] |  | 1000 to 10000 nM |  |
| C[C@H](Nc1ncnc2scnc12)c1cc2cccc(Cl)c2c(=O)n1-c1cccc(C(F)(F)F)c1 [Compound 73] |  | 1000 to 10000 nM |  |
| COc1cnccc1-c1cccc2cc([C@H](C)Nc3ncnc4scnc34)n(-c3ccccc3)c(=O)c12 [Compound 36] |  | 1000 to 10000 nM | 1000 to 10000 nM |
| CC(C)Cn1cc(-c2cccc3cc([C@H](C)Nc4ncnc5scnc45)n(-c4ccccc4)c(=O)c23)cn1 [Compound 24] |  |  | 1000 to 10000 nM |
| Cc1cc(-c2cccc3cc([C@H](C)Nc4ncnc5scnc45)n(-c4ccccc4)c(=O)c23)ccn1 [Compound 27] |  | 1000 to 10000 nM |  |
| C[C@H](Nc1ncnc2scnc12)c1cc2cccc(Cl)c2c(=O)n1C [Compound 81] | < 100 nM |  | 1000 to 10000 nM |
| C[C@H](Nc1nc(Cl)nc2scnc12)c1cc2cccc(-c3cnn(C)c3)c2c(=O)n1-c1ccccc1 [Compound 75] |  | 1000 to 10000 nM | 1000 to 10000 nM |
| C[C@H](Nc1ncnc2scnc12)c1cc2cccc(-c3cnc4nccnc4c3)c2c(=O)n1-c1ccccc1 [Compound 57] | < 100 nM |  |  |

| SMILES | EC50 (Balb/c splenic B cells) | IC50 (PI3Kβ) | IC50 (PI3Kα) |
| --- | --- | --- | --- |
| Cc1nn(C)cc1-c1cccc2cc([C@H](C)Nc3ncnc4scnc34)n(-c3ccccc3)c(=O)c12 [Compound 42] |  | 1000 to 10000 nM |  |
| Cc1cc(-c2cccc3cc([C@H](C)Nc4ncnc5scnc45)n(-c4ccccc4)c(=O)c23)cnc1F [Compound 30] |  | 1000 to 10000 nM | 1000 to 10000 nM |
| C[C@H](Nc1ncnc2scnc12)c1cc2cccc(-c3cnc4ccccc4c3)c2c(=O)n1-c1ccccc1 [Compound 41] | < 100 nM |  |  |
| C[C@H](Nc1ncnc2scnc12)c1cc2cccc(-c3cn[nH]c3)c2c(=O)n1-c1ccccc1 [Compound 26] |  | 1000 to 10000 nM | 1000 to 10000 nM |
| C[C@H](Nc1ncnc2scnc12)c1cc2cccc(-c3cncnc3)c2c(=O)n1-c1ccccc1 [Compound 19] |  | 1000 to 10000 nM | 1000 to 10000 nM |
| C[C@H](Nc1ncnc2scnc12)c1cc2cccc(-c3ccc(N)nc3)c2c(=O)n1C1CC1 [Compound 63] | < 100 nM |  |  |
| COc1ccc(-c2cccc3cc([C@H](C)Nc4ncnc5scnc45)n(-c4ccccc4)c(=O)c23)cn1 [Compound 18] |  | 1000 to 10000 nM | 1000 to 10000 nM |
| C[C@H](Nc1ncnc2scnc12)c1cc2cccc(Cl)c2c(=O)n1-c1ccccc1 [Compound 2] | < 100 nM |  |  |
| COc1cc(-c2cccc3cc([C@H](C)Nc4ncnc5scnc45)n(-c4ccccc4)c(=O)c23)ccn1 [Compound 52] | < 100 nM | 1000 to 10000 nM |  |
| C[C@H](Nc1ccnc2scnc12)c1cc2cccc(-c3cnn(C)c3)c2c(=O)n1-c1ccccc1 [Compound 91] |  | 1000 to 10000 nM | 1000 to 10000 nM |
| C[C@H](Nc1ncnc2scnc12)c1cc2scc(Cl)c2c(=O)n1-c1ccccc1 [Compound 15] |  |  | 1000 to 10000 nM |
| COc1ncc(-c2cccc3cc([C@H](C)Nc4ncnc5scnc45)n(-c4ccccc4)c(=O)c23)s1 [Compound 93] | < 100 nM | 1000 to 10000 nM |  |
| Cc1ccnc2cc(C(C)Nc3ncnc4scnc34)n(-c3ccccc3)c(=O)c12 (stereo not shown) [Compound 70] |  | 1000 to 10000 nM |  |
| COc1cncc(-c2cccc3cc([C@H](C)Nc4ncnc5scnc45)n(-c4ccccc4)c(=O)c23)c1 [Compound 39] | < 100 nM |  |  |
| C[C@H](Nc1ccnc2scnc12)c1cc2cccc(Cl)c2c(=O)n1-c1cccc(F)c1 [Compound 90] | < 100 nM |  | 1000 to 10000 nM |
| C[C@H](Nc1ncnc2scnc12)c1cc2cccc(Cl)c2c(=O)n1C1CC1 [Compound 8] | < 100 nM |  |  |
| C[C@H](Nc1ncnc2scnc12)c1cc2ccccc2c(=O)n1-c1ccccc1 [Compound 71] |  | 1000 to 10000 nM | 1000 to 10000 nM |
| COc1cncc(-c2cccc3cc([C@H](C)Nc4ncnc5scnc45)n(C4CC4)c(=O)c23)c1 [Compound 64] | < 100 nM |  |  |
| Cc1cc(-c2cccc3cc([C@H](C)Nc4ncnc5scnc45)n(-c4ccccc4)c(=O)c23)cnc1C [Compound 40] |  | 1000 to 10000 nM | 1000 to 10000 nM |
| C[C@H](Nc1ncnc2scnc12)c1cc2cccc(-c3cccnc3)c2c(=O)n1-c1ccccc1 [Compound 28] |  | 1000 to 10000 nM | 1000 to 10000 nM |
| Cc1cncc(-c2cccc3cc([C@H](C)Nc4ncnc5scnc45)n(-c4ccccc4)c(=O)c23)c1 [Compound 20] |  | 1000 to 10000 nM |  |
| C[C@H](Nc1ncnc2scnc12)c1cc2cccc(-c3cnc(N)nc3)c2c(=O)n1-c1ccccc1 [Compound 50] | < 100 nM | 1000 to 10000 nM |  |
| C[C@H](Nc1ncnc2scnc12)c1cc2cccc(-c3ccoc3)c2c(=O)n1-c1ccccc1 [Compound 34] |  | 1000 to 10000 nM |  |
| C[C@H](Nc1ncnc2scnc12)c1cc2cccc(Cl)c2c(=O)n1CCN1CCCC1 [Compound 68] | < 100 nM |  |  |
| CCn1cc(-c2cccc3cc([C@H](C)Nc4ncnc5scnc45)n(-c4ccccc4)c(=O)c23)cn1 [Compound 25] |  | 1000 to 10000 nM | 1000 to 10000 nM |
